Data: article PMC9656811, “Structure-Based Discovery and Biological Assays of a Novel PRMT5 Inhibitor for Non-Small Cell Lung Cancer” (Molecules, 2022)

Target: Protein arginine methyltransferase 5 (PRMT5) (Homo sapiens, UniProt O14744)
Test: AlphaLISA methyltransferase assay, […] concentrations, PRMT5 from BPS Bioscience (Cat. No. […])
Format: biochemical

Chain of Protein arginine methyltransferase 5 (PRMT5) (O14744 2-637): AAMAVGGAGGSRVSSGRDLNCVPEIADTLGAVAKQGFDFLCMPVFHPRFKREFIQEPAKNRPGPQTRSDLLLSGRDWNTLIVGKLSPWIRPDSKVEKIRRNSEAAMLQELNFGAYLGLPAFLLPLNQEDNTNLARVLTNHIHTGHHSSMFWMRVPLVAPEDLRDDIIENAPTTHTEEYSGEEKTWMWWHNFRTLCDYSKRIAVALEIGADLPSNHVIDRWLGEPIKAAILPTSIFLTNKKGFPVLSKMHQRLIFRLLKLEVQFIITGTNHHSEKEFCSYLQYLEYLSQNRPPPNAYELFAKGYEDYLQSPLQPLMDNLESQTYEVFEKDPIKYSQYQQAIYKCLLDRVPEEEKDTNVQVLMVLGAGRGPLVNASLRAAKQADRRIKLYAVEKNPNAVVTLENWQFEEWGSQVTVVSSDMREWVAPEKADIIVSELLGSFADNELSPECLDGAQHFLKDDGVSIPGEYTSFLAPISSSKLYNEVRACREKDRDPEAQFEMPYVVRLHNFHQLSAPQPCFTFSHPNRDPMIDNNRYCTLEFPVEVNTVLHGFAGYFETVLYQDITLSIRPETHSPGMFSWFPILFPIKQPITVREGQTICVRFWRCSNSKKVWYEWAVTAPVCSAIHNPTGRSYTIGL
Chain of Protein arginine methyltransferase 5 (PRMT5) (Q9BQA1 whole entry partner): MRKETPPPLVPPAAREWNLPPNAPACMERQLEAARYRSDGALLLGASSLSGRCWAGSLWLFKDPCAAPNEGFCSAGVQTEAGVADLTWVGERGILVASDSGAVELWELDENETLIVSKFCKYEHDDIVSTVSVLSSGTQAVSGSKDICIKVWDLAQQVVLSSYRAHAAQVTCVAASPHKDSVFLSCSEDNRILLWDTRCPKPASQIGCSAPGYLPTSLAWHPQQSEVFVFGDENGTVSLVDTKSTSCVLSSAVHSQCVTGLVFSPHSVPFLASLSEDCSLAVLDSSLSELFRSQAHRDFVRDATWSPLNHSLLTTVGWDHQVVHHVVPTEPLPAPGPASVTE

## O=C1c2ccccc2C(=O)c2c(NCCCN(CCO)CCO)cccc21 [3039-0164]
  IC50: 63 µM
